We go through 1 compound from US20040214803A1, “Use of vitamin d3 analogue for the treatment of autoimmune diabetes” (priority 2001, published 2004).

What all share (assay type): in vivo, mouse
The test system of data set [1] is pancreatic islets of NOD mice. Kind of data set: Insulitis scoring and immunohistology of pancreas sections. On the procedure:
Pancreata were snap-frozen in Tissue Tek (Miles Laboratories, Elkhart, Ind.), and 5-μm-thick sections stained with hematoxilin and eosin. Insulitis score was quantified as follows: 0, no insulitis; 1, peri-insulitis; 2, insulitis in <50% of the islet; 3, insulitis in >50% of the islet. A mean score was calculated from 40-50 islets per individual pancreas. In addition, pancreas cryostat sections were stained with biotinylated mAb directed against CD4, CD8, B220, CD11b (all purchased from PharMingen), or CD11c (N418; American Type Culture Collection, Manassas, Va.), followed by streptavidin-peroxidase conjugate. […]
NOD female mice were treated daily with Compound A (0.03 μg/Kg body weight per os) or vehicle from 8 to 12 or 16 weeks of age and glycemia levels were monitored until 38 weeks of age. […]
FIG. 2. […] The results refer to the mean values ±SE of 8 mice/group, except for 1,25-dihydroxy-16,23Z-diene-26,27-hexafluoro-19-nor vitamin D3-treated mice where three mice were scored. The P values were calculated by Mann-Whitney U test. The severity of the infiltrate is shown in the right panel Islets from the same mice were scored for absence of insulitis (□, peri-insulitis (□), moderate insulitis with <50% infiltration of the islets ( ? ) , and severe insulitis, with >50% of infiltration of the islets (▪). […]

Data set [2] can be described thus: Serum calcium levels after Compound A treatment. As to conditions: 0.03 μg/Kg per os daily for 4 days before LPS injection, NOD mice. On the procedure: In this experiment the capacity of Compound A to inhibit LPS-induced IL-12 and IFN-γ production in vivo is tested. Mice were pre-treated with vehicle or with 0.03 μg/Kg Compound A administered per os daily for 4 days before LPS injection.
FIG. 3. […] Compound A (0.03 μg/Kg) was administered orally in miglyol to NOD mice 72, 48, 24 and 1 h before LPS injection. IFN-γ, IL-12p75 and serum calcium levels were quantified 3 h post LPS injection. Bars represent the mean ±SE of 10 mice/group. The P values were calculated by Mann-Whitney U test (* indicates P<0.05 vs. vehicle-treated NOD mice).

The test system of data set [3] is pancreas-infiltrating cells. Kind of data set: Cytofluorimetric analysis of pancreas-infiltrating cells. As to conditions: among 8 week-old, vehicle-treated and treated mice at 30 weeks. Here is the method: After removal of all visible pancreatic lymph nodes, pancreata were individually digested in 3 ml HBSS containing 1 mg/ml collagenase IV (Sigma), by shaking (200 rpm) at 37° C. for 15 min. Single cell suspensions were collected after diluting the enzyme with ice-cold HBSS containing 5% FCS (FETAL CALF SERUM) and removal of the aggregates by settling for 2 min on ice. Aggregates were further digested with collagenase IV at 0.5 mg/ml for 10 min, and at 0.25 mg/ml for 6 min. Single cell suspensions were washed three times, and passed over a MASC Pre-separation filter (Miltenyi Biotec) to remove cell aggragetes and clumps. […]
Single-cell suspensions of pancreas-infiltrating, spleen or lymph node cells were incubated with anti-CD4 mAb-coated Microbeads (Miltenyi Biotec) and applied onto Mini-MACS columns (Miltenyi Biotec). […] Cells were analyzed with a FACScan flow cytometer equipped with CellQuest software (Becton Dickinson, Mountain View, Calif.).
B. Consecutive sections of the same islets were stained with anti-CD4, anti-CD8, anti-B220, anti-CD11b (Mac-1), and anti-CD11c (N418) mAbs. […] Pancreas-infiltrating cells isolated from untreated 8 week-old NOD mice, vehicle-treated and Compound A treated NOD mice at 30 weeks of age were stained with mAbs specific for the indicated surface molecules and analyzed by flow cytometry. […]

Consider `C[C@H](C/C=C\C(O)(C(F)(F)F)C(F)(F)F)C1=CC[C@H]2/C(=C/C=C3C[C@@H](O)C[C@H](O)C3)CCC[C@]12C` [Compound A, 1,25-dihydroxy-16,23Z-diene-26,27-hexafluoro-19-nor vitamin D3], for which the “functional islet β cells (positive staining for insulin)” value in data set [1] (at 30 weeks of age, compared to vehicle-treated NOD mice at 30 weeks) was “more frequent”. In addition, in data set [1] (treated 8 to 16 weeks, analysed at 30 weeks of age, compared to 8 weeks old NOD mice), the “score and severity of insulitis” value was “similar”. Besides, the “hypercalcemia (serum calcium levels)” value in data set [2] is on record as “did not induce hypercalcemia”. Moreover, the “percentage of CD4+, CD8+, B220+, CD11b+ and CD11c+ pancreas-infiltrating cells” value in data set [3] is “no difference”.
